Data reported in publication doi:10.1101/2024.08.19.608619, “Discovery of potent SARS-CoV-2 nsp3 macrodomain inhibitors uncovers lack of translation to cellular antiviral response” (bioRxiv, 2024).
Where two headings read alike, the source gives them in different places.

Columns and labels:
SARS-CoV-2 nsp3-mac1 [1] = biological target: T1, SARS-CoV-2 nsp3-mac1 (Severe acute respiratory syndrome coronavirus 2, UniProt P0DTD1); test: biochemical; format: biochemical; details: SARS-CoV-2 nsp3 macrodomain TR-FRET single point
SARS-CoV-2 nsp3-mac1 [2] = biological target: T1, SARS-CoV-2 nsp3-mac1; test: biochemical; design: SARS-CoV-2 nsp3 macrodomain TR-FRET single point, per cent inhibition, n=2
[3] = read-out: perc_inhibition_mean, batch_name=ASAP-0000417-001
[4] = read-out: perc_inhibition_mean, batch_name=ASAP-0000418-001
[5] = read-out: perc_inhibition_mean, batch_name=ASAP-0000419-001
[6] = read-out: perc_inhibition_mean, batch_name=ASAP-0000420-001
[7] = read-out: perc_inhibition_mean, batch_name=ASAP-0000421-001
[8] = read-out: perc_inhibition_mean, batch_name=ASAP-0000422-001
[9] = read-out: perc_inhibition_mean, batch_name=ASAP-0000423-001
[10] = read-out: perc_inhibition_mean, batch_name=ASAP-0000424-001
[11] = read-out: perc_inhibition_mean, batch_name=ASAP-0000425-001
[12] = read-out: perc_inhibition_mean, batch_name=ASAP-0000426-001
[13] = read-out: perc_inhibition_mean, batch_name=ASAP-0000427-001
[14] = read-out: perc_inhibition_mean, batch_name=ASAP-0000428-001
[15] = read-out: perc_inhibition_mean, batch_name=ASAP-0000429-001
[16] = read-out: perc_inhibition_mean, batch_name=ASAP-0000430-001
[17] = read-out: perc_inhibition_mean, batch_name=ASAP-0000448-001
[18] = read-out: perc_inhibition_mean, batch_name=ASAP-0000449-001
[19] = read-out: perc_inhibition_mean, batch_name=ASAP-0000451-001
[20] = read-out: perc_inhibition_mean, batch_name=ASAP-0000452-001
[21] = read-out: perc_inhibition_mean, batch_name=ASAP-0000454-001
[22] = read-out: perc_inhibition_mean, batch_name=ASAP-0000455-001
[23] = read-out: perc_inhibition_mean, batch_name=ASAP-0000456-001
[24] = read-out: perc_inhibition_mean, batch_name=ASAP-0000457-001
[25] = read-out: perc_inhibition_mean, batch_name=ASAP-0000458-001
[26] = read-out: perc_inhibition_mean, batch_name=ASAP-0000459-001
[27] = read-out: perc_inhibition_mean, batch_name=ASAP-0000460-001

Row | Structure (SMILES) | perc_inhibition_mean (SARS-CoV-2 nsp3-mac1 [1]; concentration 49.75 uM) | perc_inhibition_mean (SARS-CoV-2 nsp3-mac1 [1]; concentration 99.5 uM) | other results
1 | O=C(CCN(Cc1cccc(Cl)c1)C(=O)[C@@H]1C[C@@H](O)CN1)N1CCNCC1 [ASAP-0000417] | -3.538% | 4.743% | inhibition at 49.75 µM (SARS-CoV-2 nsp3-mac1 [2]; [3]): -3.54%; inhibition at 99.5 µM (SARS-CoV-2 nsp3-mac1 [2]; [3]): 4.74%
2 | Cn1ncnc1C(=O)N1CCC(c2ccn3ncc(C(=O)N4CCCCC4)c3c2)CC1 [ASAP-0000418] | 2.38% | 20.346% | inhibition at 49.75 µM (SARS-CoV-2 nsp3-mac1 [2]; [4]): 2.38%; inhibition at 99.5 µM (SARS-CoV-2 nsp3-mac1 [2]; [4]): 20.3%
3 | O=C(c1nc(=O)[nH][nH]1)N1CCC(c2ccn3ncc(C(=O)N4CCCCC4)c3c2)CC1 [ASAP-0000419] | 23.445% | 34.579% | inhibition at 49.75 µM (SARS-CoV-2 nsp3-mac1 [2]; [5]): 23.4%; inhibition at 99.5 µM (SARS-CoV-2 nsp3-mac1 [2]; [5]): 34.6%
4 | O=C(c1cc(O)ncn1)N1CCC(c2ccn3ncc(C(=O)N4CCCCC4)c3c2)CC1 [ASAP-0000420] | 19.125% | 30.869% | inhibition at 49.75 µM (SARS-CoV-2 nsp3-mac1 [2]; [6]): 19.1%; inhibition at 99.5 µM (SARS-CoV-2 nsp3-mac1 [2]; [6]): 30.9%
5 | O=C(c1c[nH]nn1)N1CCC(c2ccn3ncc(C(=O)N4CCCCC4)c3c2)CC1 [ASAP-0000421] | 14.65% | 25.652% | inhibition at 49.75 µM (SARS-CoV-2 nsp3-mac1 [2]; [7]): 14.7%; inhibition at 99.5 µM (SARS-CoV-2 nsp3-mac1 [2]; [7]): 25.7%
6 | O=C(c1ccc(O)nc1)N1CCC(c2ccn3ncc(C(=O)N4CCCCC4)c3c2)CC1 [ASAP-0000422] | 10.998% | 26.485% | inhibition at 49.75 µM (SARS-CoV-2 nsp3-mac1 [2]; [8]): 11%; inhibition at 99.5 µM (SARS-CoV-2 nsp3-mac1 [2]; [8]): 26.5%
7 | Cc1c[nH]nc1C(=O)N1CCC(c2ccn3ncc(C(=O)N4CCCCC4)c3c2)CC1 [ASAP-0000423] | 8.474% | 27.38% | inhibition at 49.75 µM (SARS-CoV-2 nsp3-mac1 [2]; [9]): 8.47%; inhibition at 99.5 µM (SARS-CoV-2 nsp3-mac1 [2]; [9]): 27.4%
8 | CN(C(=O)c1cnn2ccc(C3CCN(C(=O)c4ccccc4)CC3)cc12)c1ccccc1O [ASAP-0000424] | 10.02% | 15.878% | inhibition at 49.75 µM (SARS-CoV-2 nsp3-mac1 [2]; [10]): 10%; inhibition at 99.5 µM (SARS-CoV-2 nsp3-mac1 [2]; [10]): 15.9%
9 | COC[C@@H](Nc1ncnc2nc[nH]c12)c1ccc(C)o1 [ASAP-0000425] | -4.638% | 3.942% | inhibition at 49.75 µM (SARS-CoV-2 nsp3-mac1 [2]; [11]): -4.64%; inhibition at 99.5 µM (SARS-CoV-2 nsp3-mac1 [2]; [11]): 3.94%
10 | CC(C)c1nc([C@@H](C)Nc2ncnc3nc[nH]c23)cs1 [ASAP-0000426] | 2.645% | 3.067% | inhibition at 49.75 µM (SARS-CoV-2 nsp3-mac1 [2]; [12]): 2.65%; inhibition at 99.5 µM (SARS-CoV-2 nsp3-mac1 [2]; [12]): 3.07%
11 | CN(c1ncnc2[nH]ncc12)[C@@H](CCO)c1ccccc1 [ASAP-0000427] | 8.856% | 5.14% | inhibition at 49.75 µM (SARS-CoV-2 nsp3-mac1 [2]; [13]): 8.86%; inhibition at 99.5 µM (SARS-CoV-2 nsp3-mac1 [2]; [13]): 5.14%
12 | CC(C)[C@H]1CNC(=O)CN1c1ncnc2[nH]ccc12 [ASAP-0000428] | 6.836% | 17.564% | inhibition at 49.75 µM (SARS-CoV-2 nsp3-mac1 [2]; [14]): 6.84%; inhibition at 99.5 µM (SARS-CoV-2 nsp3-mac1 [2]; [14]): 17.6%
13 | Cc1nc(NC(=O)Cn2cnc3ccccc3c2=O)c2cc[nH]c2n1 [ASAP-0000429] | -4.067% | -4.886% | inhibition at 49.75 µM (SARS-CoV-2 nsp3-mac1 [2]; [15]): -4.07%; inhibition at 99.5 µM (SARS-CoV-2 nsp3-mac1 [2]; [15]): -4.89%
14 | O=C(c1nnn[nH]1)N1CCC(c2ccn3ncc(C(=O)N4CCCCC4)c3c2)CC1 [ASAP-0000430] | 55.152% | 69.012% | inhibition at 49.75 µM (SARS-CoV-2 nsp3-mac1 [2]; [16]): 55.2%; inhibition at 99.5 µM (SARS-CoV-2 nsp3-mac1 [2]; [16]): 69%
15 | Cn1cc([C@H]2CSCCN2c2ncnc3[nH]ccc23)cn1 [ASAP-0000448] | -6.49% | -3.463% | inhibition at 49.75 µM (SARS-CoV-2 nsp3-mac1 [2]; [17]): -6.49%; inhibition at 99.5 µM (SARS-CoV-2 nsp3-mac1 [2]; [17]): -3.46%
16 | Cn1nc(C(=O)N2CCC(c3ccn4ncc(C(=O)N5CCCCC5)c4c3)CC2)cc1C(=O)O [ASAP-0000449] | 42.655% | 59.743% | inhibition at 49.75 µM (SARS-CoV-2 nsp3-mac1 [2]; [18]): 42.7%; inhibition at 99.5 µM (SARS-CoV-2 nsp3-mac1 [2]; [18]): 59.7%
17 | O=C(O)c1ccc(C(=O)N2CCC(c3ccn4ncc(C(=O)N5CCCCC5)c4c3)CC2)o1 [ASAP-0000451] | 40.495% | 58.121% | inhibition at 49.75 µM (SARS-CoV-2 nsp3-mac1 [2]; [19]): 40.5%; inhibition at 99.5 µM (SARS-CoV-2 nsp3-mac1 [2]; [19]): 58.1%
18 | CC(C)[C@@H](Nc1ncnc2[nH]ccc12)C(F)F [ASAP-0000452] | 81.614% | 91.659% | inhibition at 49.75 µM (SARS-CoV-2 nsp3-mac1 [2]; [20]): 81.6%; inhibition at 99.5 µM (SARS-CoV-2 nsp3-mac1 [2]; [20]): 91.7%
19 | CC(C)[C@@H]1[C@H](O)CCN1c1ncnc2[nH]ccc12 [ASAP-0000454] | 17.696% | 32.152% | inhibition at 49.75 µM (SARS-CoV-2 nsp3-mac1 [2]; [21]): 17.7%; inhibition at 99.5 µM (SARS-CoV-2 nsp3-mac1 [2]; [21]): 32.2%
20 | CC(C)[C@@H](Nc1ncnc2[nH]ccc12)c1cccs1 [ASAP-0000455] | 84.659% | 89.893% | inhibition at 49.75 µM (SARS-CoV-2 nsp3-mac1 [2]; [22]): 84.7%; inhibition at 99.5 µM (SARS-CoV-2 nsp3-mac1 [2]; [22]): 89.9%
21 | O=C(O)c1cnc(C(=O)N2CCC(c3ccn4ncc(C(=O)N5CCCCC5)c4c3)CC2)cn1 [ASAP-0000456] | 27.543% | 46.435% | inhibition at 49.75 µM (SARS-CoV-2 nsp3-mac1 [2]; [23]): 27.5%; inhibition at 99.5 µM (SARS-CoV-2 nsp3-mac1 [2]; [23]): 46.4%
22 | Cn1nc(C(=O)O)cc1C(=O)N1CCC(c2ccn3ncc(C(=O)N4CCCCC4)c3c2)CC1 [ASAP-0000457] | 34.252% | 52.667% | inhibition at 49.75 µM (SARS-CoV-2 nsp3-mac1 [2]; [24]): 34.3%; inhibition at 99.5 µM (SARS-CoV-2 nsp3-mac1 [2]; [24]): 52.7%
23 | O=C(O)c1ccc2c(c1)ncn2-c1ccc(CNC(=O)c2ncnc3[nH]ccc23)cc1 [ASAP-0000458] | -33.429% | -4.649% | inhibition at 49.75 µM (SARS-CoV-2 nsp3-mac1 [2]; [25]): -33.4%; inhibition at 99.5 µM (SARS-CoV-2 nsp3-mac1 [2]; [25]): -4.65%
24 | O=C(C[C@@H](NC(=O)c1ncnc2[nH]ccc12)C1CC1)NCc1ccc(C(=O)O)cc1 [ASAP-0000459] | -9.862% | 0.768% | inhibition at 49.75 µM (SARS-CoV-2 nsp3-mac1 [2]; [26]): -9.86%; inhibition at 99.5 µM (SARS-CoV-2 nsp3-mac1 [2]; [26]): 0.768%
25 | C[C@@H](NC(=O)c1ncnc2[nH]ccc12)c1ncc(C(=O)O)c(=O)[nH]1 [ASAP-0000460] | 4.872% | 10.734% | inhibition at 49.75 µM (SARS-CoV-2 nsp3-mac1 [2]; [27]): 4.87%; inhibition at 99.5 µM (SARS-CoV-2 nsp3-mac1 [2]; [27]): 10.7%
